According to paper PMC9090415, “Discovery of small molecule inhibitors of Plasmodium falciparum apicoplast DNA polymerase” (Journal of Enzyme Inhibition and Medicinal Chemistry, 2022):
pIC50: −log10 of the molar value.

Target: P. falciparum apicoplast DNA polymerase (Pf-apPOL) (Plasmodium falciparum, UniProt Q8ILY1)
Experiment: Fluorescence-based high-throughput DNA polymerase assay (molecular beacon), primary screen and dose-response;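 on % inhibition ApPOL 90': test concentration in µM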;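 on % inhibition apPOL 180': test concentration in µM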
Type: biochemical
How it was run: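 Single-point screening used 10 µM compound with 20 nM polymerase, 20 nM hairpin substrate and 6 µM dNTPs for 90 min at 25 °C. Confirmatory titrations (2.5–80 µM) followed fluorescence at three times, and IC50 was derived from a fit including a cooperativity term n.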

Sequence of P. falciparum apicoplast DNA polymerase (Pf-apPOL) (Q8ILY1 entry or part of it): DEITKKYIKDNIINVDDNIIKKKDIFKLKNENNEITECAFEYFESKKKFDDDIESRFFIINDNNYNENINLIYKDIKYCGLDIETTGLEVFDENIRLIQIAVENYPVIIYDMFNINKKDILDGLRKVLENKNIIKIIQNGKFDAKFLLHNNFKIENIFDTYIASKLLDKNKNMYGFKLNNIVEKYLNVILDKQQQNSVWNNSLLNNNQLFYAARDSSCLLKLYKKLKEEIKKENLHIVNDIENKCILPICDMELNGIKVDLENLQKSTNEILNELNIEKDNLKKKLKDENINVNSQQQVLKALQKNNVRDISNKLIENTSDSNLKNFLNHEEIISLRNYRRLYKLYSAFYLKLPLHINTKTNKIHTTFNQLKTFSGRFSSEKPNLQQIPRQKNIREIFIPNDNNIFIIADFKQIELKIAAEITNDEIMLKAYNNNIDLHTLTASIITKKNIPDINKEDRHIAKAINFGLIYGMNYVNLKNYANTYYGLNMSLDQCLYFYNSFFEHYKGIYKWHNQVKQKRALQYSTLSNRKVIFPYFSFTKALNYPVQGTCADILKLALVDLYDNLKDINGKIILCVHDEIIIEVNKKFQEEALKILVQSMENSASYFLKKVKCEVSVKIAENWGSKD

## O=c1nc(/C=C/c2ccc(Br)cc2)oc2ccccc12 [KU0052629]
'DNA Pol' of the 186 hits list (screen value); 90 min, 10 µM
  DNA Pol: 39
DRC-1; 10'; conc 2.5
  % inhibition Apo pol 10': -0.8795%
DRC-1; 10'; conc 5
  % inhibition Apo pol 10': 1.877%
DRC-1; 10'; conc 10
  % inhibition Apo pol 10': 5.765%
DRC-1; 10'; conc 20
  % inhibition Apo pol 10': 17.2321%
DRC-1; 10'; conc 40
  % inhibition Apo pol 10': 88.0772%
DRC-1; 10'; conc 80
  % inhibition Apo pol 10': 96.3156%
DRC-1; 90'; conc 2.5
  % inhibition Apol 90': -3.77%
DRC-1; 90'; conc 5
  % inhibition Apol 90': -1.711%
DRC-1; 90'; conc 10
  % inhibition Apol 90': 2.797%
DRC-1; 90'; conc 20
  % inhibition Apol 90': 11.2319%
DRC-1; 90'; conc 40
  % inhibition Apol 90': 85.0713%
DRC-1; 90'; conc 80
  % inhibition Apol 90': 92.172%
DRC-1; 180'; conc 2.5
  % inhibition apPOL 180': -7.96%
DRC-1; 180'; conc 5
  % inhibition apPOL 180': -5.094%
DRC-1; 180'; conc 10
  % inhibition apPOL 180': -1.853%
DRC-1; 180'; conc 20
  % inhibition apPOL 180': 4.7876%
DRC-1; 180'; conc 40
  % inhibition apPOL 180': 80.0065%
DRC-1; 180'; conc 80
  % inhibition apPOL 180': 94.1472%
DRC-2; 5'; conc 2.5
  % inhibition Apo pol 5': 6%
DRC-2; 5'; conc 5
  % inhibition Apo pol 5': -1.24%
DRC-2; 5'; conc 10
  % inhibition Apo pol 5': 6%
DRC-2; 5'; conc 20
  % inhibition Apo pol 5': 35%
DRC-2; 5'; conc 40
  % inhibition Apo pol 5': 60%
DRC-2; 5'; conc 80
  % inhibition Apo pol 5': 61%
DRC-2; 5'; concentration 2.5
  % inhibition Apo pol 5': 6%
DRC-2; 5'; concentration 10
  % inhibition Apo pol 5': 6%
DRC-2; 40'; conc 2.5
  % inhibition Apol 40': 8%
DRC-2; 40'; conc 5
  % inhibition Apol 40': -2.13%
DRC-2; 40'; conc 10
  % inhibition Apol 40': 5.6%
DRC-2; 40'; conc 20
  % inhibition Apol 40': 48%
DRC-2; 40'; conc 40
  % inhibition Apol 40': 77%
DRC-2; 40'; conc 80
  % inhibition Apol 40': 75%
DRC-2; 40'; concentration 2.5
  % inhibition Apol 40': 8%
DRC-2; 90'; conc 2.5
  % inhibition ApPOL 90': 8%
DRC-2; 90'; conc 5
  % inhibition ApPOL 90': -2%
DRC-2; 90'; conc 10
  % inhibition ApPOL 90': 5%
DRC-2; 90'; conc 20
  % inhibition ApPOL 90': 45%
DRC-2; 90'; conc 40
  % inhibition ApPOL 90': 79%
DRC-2; 90'; conc 80
  % inhibition ApPOL 90': 79%
DRC-2; 90'; concentration 2.5
  % inhibition ApPOL 90': 8%
DRC-2; 90'; concentration 40
  % inhibition ApPOL 90': 79%
DRC-2; 90'; concentration 80
  % inhibition ApPOL 90': 79%
DRC-2; 180'; conc 2.5
  % inhibition apPOL 180': 6%
DRC-2; 180'; conc 5
  % inhibition apPOL 180': -4%
DRC-2; 180'; conc 10
  % inhibition apPOL 180': 2.72%
DRC-2; 180'; conc 20
  % inhibition apPOL 180': 37%
DRC-2; 180'; conc 40
  % inhibition apPOL 180': 79%
DRC-2; 180'; conc 80
  % inhibition apPOL 180': 79%
DRC-2; 180'; concentration 2.5
  % inhibition apPOL 180': 6%
DRC-2; 180'; concentration 40
  % inhibition apPOL 180': 79%
DRC-2; 180'; concentration 80
  % inhibition apPOL 180': 79%
Primary screen value, "DNA Pol"; 90 min, 10 µM
  DNA Pol: 39

## CC(=O)OCC1=C(C(=O)O)N2C(=O)[C@@H](NC(=O)Cc3cccs3)[C@H]2SC1 [Molecule 73]
Supplemental file 2, sheet IC50 nontoxic compounds; Pf-apPOL
  pIC50: 4.78

## O=[N+]([O-])c1cc2c(cc1CN1CCN(c3cccc(Cl)c3)CC1)OCO2 [KU0005610]
'DNA Pol'; screening value, unit not given; 90 min, 10 µM
  DNA Pol: 40
DRC-1; 10'; concentration 2.5
  % inhibition Apo pol 10': 13.4536%
DRC-1; 10'; concentration 5
  % inhibition Apo pol 10': 19.449%
DRC-1; 10'; concentration 10
  % inhibition Apo pol 10': 35.0383%
DRC-1; 10'; concentration 20
  % inhibition Apo pol 10': 58.0522%
DRC-1; 10'; concentration 40
  % inhibition Apo pol 10': 81.6045%
DRC-1; 10'; concentration 80
  % inhibition Apo pol 10': 82.8557%
DRC-1; 90'; concentration 2.5
  % inhibition Apol 90': 0.2927%
DRC-1; 90'; concentration 5
  % inhibition Apol 90': 2.869%
DRC-1; 90'; concentration 10
  % inhibition Apol 90': 13.5382%
DRC-1; 90'; concentration 20
  % inhibition Apol 90': 40.3549%
DRC-1; 90'; concentration 40
  % inhibition Apol 90': 64.8091%
DRC-1; 90'; concentration 80
  % inhibition Apol 90': 60.8313%
DRC-1; 180'; concentration 2.5
  % inhibition apPOL 180': -5.629%
DRC-1; 180'; concentration 5
  % inhibition apPOL 180': -4.543%
DRC-1; 180'; concentration 10
  % inhibition apPOL 180': 2.609%
DRC-1; 180'; concentration 20
  % inhibition apPOL 180': 32.6998%
DRC-1; 180'; concentration 40
  % inhibition apPOL 180': 54.6533%
DRC-1; 180'; concentration 80
  % inhibition apPOL 180': 41.754%
DRC-2, 5', concentration 2.5
  % inhibition Apo pol 5': 6%
DRC-2, 5', concentration 5
  % inhibition Apo pol 5': 11%
DRC-2, 5', concentration 10
  % inhibition Apo pol 5': 25%
DRC-2, 5', concentration 20
  % inhibition Apo pol 5': 34%
DRC-2, 5', concentration 40
  % inhibition Apo pol 5': 45%
DRC-2, 5', concentration 80
  % inhibition Apo pol 5': 49%
DRC-2, 40', concentration 2.5
  % inhibition Apol 40': 2.55%
DRC-2, 40', concentration 5
  % inhibition Apol 40': 6.48%
DRC-2, 40', concentration 10
  % inhibition Apol 40': 18%
DRC-2, 40', concentration 20
  % inhibition Apol 40': 28%
DRC-2, 40', concentration 40
  % inhibition Apol 40': 49%
DRC-2, 40', concentration 80
  % inhibition Apol 40': 61%
DRC-2, 90', concentration 2.5
  % inhibition ApPOL 90': -0.242%
DRC-2, 90', concentration 5
  % inhibition ApPOL 90': 1.42%
DRC-2, 90', concentration 10
  % inhibition ApPOL 90': 11%
DRC-2, 90', concentration 20
  % inhibition ApPOL 90': 20%
DRC-2, 90', concentration 40
  % inhibition ApPOL 90': 45%
DRC-2, 90', concentration 80
  % inhibition ApPOL 90': 61%
DRC-2, 180', concentration 2.5
  % inhibition apPOL 180': -7.6%
DRC-2, 180', concentration 5
  % inhibition apPOL 180': -5.3%
DRC-2, 180', concentration 10
  % inhibition apPOL 180': 2.12%
DRC-2, 180', concentration 20
  % inhibition apPOL 180': 7%
DRC-2, 180', concentration 40
  % inhibition apPOL 180': 32%
DRC-2, 180', concentration 80
  % inhibition apPOL 180': 53%
Conc 5 (unit not given); 5'; DRC-2
  % inhibition Apo pol 5': 11%
Conc 10 (unit not given); 90'; DRC-2
  % inhibition ApPOL 90': 11%
Conc 40 (unit not given); 5'; DRC-2
  % inhibition Apo pol 5': 45%
Conc 40 (unit not given); 40'; DRC-2
  % inhibition Apol 40': 49%
Conc 40 (unit not given); 90'; DRC-2
  % inhibition ApPOL 90': 45%
Conc 80 (unit not given); 5'; DRC-2
  % inhibition Apo pol 5': 49%
Conc 80 (unit not given); 40'; DRC-2
  % inhibition Apol 40': 61%
Conc 80 (unit not given); 90'; DRC-2
  % inhibition ApPOL 90': 61%
Primary screen hit value, DNA Pol (186 hits); 90 min, 10 µM
  DNA Pol: 40
